# From US20140000882A1, “PETROLEUM RECOVERY PROCESS AND SYSTEM” (Shell Oil Company, priority 2012, published 2014)
# Experiment: Oil recovery from formation core by brine displacement followed by DMS displacement
# Settings: after waterflooding with brine
# Protocol: Incremental recovery of oil from a formation core using an oil recovery formulation consisting of dimethyl sulfide following oil recovery from the core by water-flooding was measured to evaluate the effectiveness of DMS as a tertiary oil recovery agent.
# Two 5.02 cm long Berea sandstone cores with a core diameter of 3.78 cm and a permeability between 925 and 1325 mD were saturated with a brine having a composition as set forth in Table 7.
# After saturation of the cores with brine, the brine was displaced by a Middle Eastern Asphaltic crude oil having the characteristics as set forth above in Table 3 to saturate the cores with oil.
# Oil was recovered from each oil saturated core by the addition of brine to the core under pressure and by subsequent addition of DMS to the core under pressure. Each core was treated as follows to determine the amount of oil recovered from the core by addition of brine followed by addition of DMS. Oil was initially displaced from the core by addition of brine to the core under pressure. A confining pressure of 1 MPa was applied to the core during addition of the brine, and the flow rate of brine to the core was set at 0.05 ml/min. The core was maintained at a temperature of 50° C. during displacement of oil from the core with brine. […]
compound,measurement,value
"CSC [Dimethyl Sulfide, dimethyl sulfide]",oil remaining in the core after the waterflood recovered,approximately 60%
